Blank lines part the entries; values can stand above or below the molecule they belong to.
Experiments:
[1] = biological target: T1, human CYP1A1 (Homo sapiens, UniProt P04798); assay: Competitive assay between fluorogenic substrate (7-ER) and non-fluorogenic substrate using caged-G6P; type: biochemical; details: benzopyrene 0.1 and 1 μM; 7-ER 0.1 to 1.5 μM
T1 construct: made in house; host or cells: E. coli DH5alpha, membrane fraction
T1 sequence (P04798 1-512): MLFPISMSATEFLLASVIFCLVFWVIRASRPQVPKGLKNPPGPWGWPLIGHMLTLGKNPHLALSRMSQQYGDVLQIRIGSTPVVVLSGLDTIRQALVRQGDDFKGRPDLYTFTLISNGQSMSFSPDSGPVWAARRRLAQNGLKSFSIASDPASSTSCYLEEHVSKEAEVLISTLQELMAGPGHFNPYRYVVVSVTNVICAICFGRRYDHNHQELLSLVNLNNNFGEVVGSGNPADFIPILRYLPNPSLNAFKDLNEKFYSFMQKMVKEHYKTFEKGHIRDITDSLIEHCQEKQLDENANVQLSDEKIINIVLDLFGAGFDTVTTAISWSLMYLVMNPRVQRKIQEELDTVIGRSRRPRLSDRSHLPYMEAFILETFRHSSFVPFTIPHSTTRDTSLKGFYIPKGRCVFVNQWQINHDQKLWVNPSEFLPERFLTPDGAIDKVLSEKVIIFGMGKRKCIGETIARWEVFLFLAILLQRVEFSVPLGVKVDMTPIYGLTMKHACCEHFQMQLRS
Protocol: A competitive assay between a fluorogenic substrate (7-ER) and a non-fluorogenic substrate (benzopyrene) was conducted using caged-G6P. An aqueous solution obtained by mixing the following components was used as the reaction liquid: 50 μL of 1 M potassium phosphate buffer solution, 30 μL of 5 mM caged-G6P, 2.89 μL of 69.3 U/mL glucose-6-phosphate […], 15 μL of 100 mM magnesium chloride, 1 μL of 5 mM NADP aqueous solution, 10.25 μL of P450 membrane fractions (human CYP1A1), 5 μL of 0.1 M dithiothreitol, and 379.61 μL of ultrapure water. The 7-ER concentration was varied from 0.1 μM to 1.5 μM. The benzopyrene concentrations were 0.1 μM and 1 μM. After UV light irradiation, incubation was performed for 30 minutes to carry out the P450 enzymatic reaction. Thereafter, 25 μL of 30% trichloroacetic acid was added thereto to terminate the enzymatic reaction. By adding 500 μL of chloroform to the reaction liquid and stirring the mixture for 1 minute, the […] (7HR) generated by the reaction was extracted in chloroform. […] After centrifuging for 1 minute, the […] was transferred to a cuvette, and the fluorescence spectra thereof were measured under the following conditions. Excitation wavelength: 366 nm, fluorescence wavelength: 380 to 600 nm. The maximum fluorescence was used to quantify the 7HR. […]

[2] = biological target: T2, CYP3A5 (Homo sapiens, UniProt P20815); type: in vitro ADME
T2 construct: made in house; host or cells: E. coli membrane fraction (inferred from the pCW negative control and the general expression paragraph)
Protocol: Using a 96-well microplate, the activity of various human P450 molecular species in oxygen sensor/immobilized P450 toward capsaicin was evaluated. The response to a solution with a substrate was compared to the response to a solution without a substrate and the activity of each molecular species was standardized. CYP2C9, CYP1A2, CYP2D6, CYP3A4, CYP2B6, CYP2C19(1A,1B), CYP2E1, CYP1A1, CYP2C8, CYP2W1, CYP4X1, CYP17A1, CYP27A1, CYP51A1, CYP2A6, CYP2A13, CYP1B1, CYP2C18, CYP2J2, CYP3A5, CYP2R1 and CYP2B6 were used as the P450. Furthermore, a membrane fraction (pCW) derived from E. coli was used as a negative control without human P450. […] The longitudinal axis of FIG. 11 indicates the value obtained by dividing the value of the response with a substrate by the value of the response without a substrate (background oxygen consumption) and standardizing the obtained value. As is clear from the figure, various molecular species show activity toward each compound. […] This also indicates the possibility that activities of human P450 toward pharmaceutical compounds and like compounds can be detected in a parallel manner.

[3] = biological target: T1, human CYP1A1; assay: Substrate metabolic activity on immobilized P450/oxygen sensor vertically integrated chip (fluorescence response of oxygen sensor); type: in vitro ADME; details: 0.5 mM chlortoluron
Protocol: A ruthenium complex (Ru(dpp)3Cl2) doped sol solution was prepared as described in Anal. Chem. 75 (2003) 2407-2413 with small modifications as follows. TEOS (0.29 mL) was mixed with 0.612 mL of octyl-triEOS, 0.625 mL of ethanol, and 0.2 mL of 0.1 M HCl by stirring for 1 hour at room temperature. Then, 1.725 mL of ethanol was added to the solution to dilute the sol in order to improve the quality of the oxygen sensing film to be ultimately formed. The solution was further stirred for 1 hour. To prepare an Ru(dpp)3Cl2 doped sol, 100 μL of 2 mM Ru(dpp)3Cl2 in ethanol was mixed with 300 μL of the above-mentioned sol solution. This solution was capped and stirred for 30 min, and 10 μL thereof was pipetted into each well of the microplate. The microplate was stored in the dark at room temperature for gelling and aging for 6 days. In order to increase the hydrophilicity of the surface of the oxygen sensor to improve the attachment with hydrogel, the surface of the microarrays was modified with poly (vinyl acetate) (PVAC).
Agarose was dissolved in deionized water to form a 1.3% (w/w) solution at 60° C. This solution was cooled to about 38° C. […] The microarrays were kept in a refrigerator at 4° C. until use.
TEOS sol was prepared by mixing 0.5 mL of TEOS, 0.25 mL of deionized water, and 12.5 μL of 0.1 M HCl and stirring for 3 hours to form a homogeneous sol. The sol was diluted four times with deionized water. […]
In order to measure the substrate metabolic activities using an immobilized P450/oxygen sensor vertically integrated chip (i.e., a chip comprising an immobilized P450 and an oxygen sensor vertically integrated therein), a study was conducted using immobilized human CYP1A1 as the P450 and chlortoluron (a herbicide) as a substrate. […] After the addition of the substrate solution into the microarrays, the microplate was quickly placed onto the platform of a microplate reader for the fluorescence measurement. Fluorescence intensity was recorded every 5 min for 3 hours.

T2 sequence (P20815 whole entry): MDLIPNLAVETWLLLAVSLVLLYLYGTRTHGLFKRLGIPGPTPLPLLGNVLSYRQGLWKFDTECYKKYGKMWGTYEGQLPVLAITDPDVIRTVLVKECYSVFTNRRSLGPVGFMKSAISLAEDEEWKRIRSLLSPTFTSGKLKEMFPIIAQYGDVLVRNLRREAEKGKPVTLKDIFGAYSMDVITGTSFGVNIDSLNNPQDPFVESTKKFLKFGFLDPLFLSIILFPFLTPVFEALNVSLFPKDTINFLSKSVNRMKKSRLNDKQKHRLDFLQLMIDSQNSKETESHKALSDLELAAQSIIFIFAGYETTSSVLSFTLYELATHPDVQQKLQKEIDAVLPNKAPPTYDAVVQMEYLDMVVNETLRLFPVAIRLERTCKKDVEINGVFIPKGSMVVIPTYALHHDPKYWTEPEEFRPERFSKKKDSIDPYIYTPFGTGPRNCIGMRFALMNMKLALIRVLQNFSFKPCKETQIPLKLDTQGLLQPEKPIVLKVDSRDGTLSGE

Structure (SMILES): c1ccc2c(c1)c1cccc3ccc4cccc2c4c31 [benzopyrene]
mode of inhibition of 7-ER metabolism (effect on initial reaction velocity) [1]: noncompetitive inhibitor

oxygen sensor response normalized by the response toward a solution without a substrate (peak height, FIG. 11) [2]: particularly high
Structure (SMILES): COc1cc(CNC(=O)CCCC/C=C/C(C)C)ccc1O [capsaicin]

Structure (SMILES): Cc1ccc(NC(=O)N(C)C)cc1Cl [chlortoluron]
change in fluorescence intensity of the oxygen sensing layer (oxygen consumption due to metabolic reaction) ([3]; P450 encapsulated in Ludox silica gel): only a limited increase
change in fluorescence intensity of the oxygen sensing layer (oxygen consumption due to metabolic reaction) ([3]; P450 encapsulated in TEOS silica gel): no significant fluorescence increase
change in fluorescence intensity of the oxygen sensing layer (oxygen consumption due to metabolic reaction) ([3]; P450 encapsulated in agarose gel, versus NADPH solution without substrate): significantly increased

Reference: patent US20120288885A1, “METHOD AND KIT FOR MEASURING ENZYMATIC ACTIVITIES OF VARIOUS CYTOCHROME P450 MOLECULE SPECIES COMPREHENSIVELY AND WITH HIGH EFFICIENCY” (NATIONAL INSTITUTE OF ADVANCED INDUSTRIAL SCIENCE AND …, priority 2009, published 2012)
